Assay results reported in patent US20190382432A1 (Synbias Pharma AG, priority 2013, published 2019).
Counter-ions that a name gives are not always drawn. Marks after values point to notes of the source that are not given here.

Legend:
Format in all cases: physicochemical
[1] = Thermostability on storage at 25, 40 and 100 °C per ICH Q1A (R2), HPLC; settings: 25, 40, 100 °C; data not shown
Description: HPLC and GC analyses were performed according to standard protocols.
The testing was performed as described in the ICH guidelines (cf. inter alia ICH Guideline Q1A (R2)).

[2] = Hygroscopic capacity: water content by Karl-Fischer titration after exposure to temperature and relative humidity; settings: 25 or 40 °C, 40-90% rh; data not shown
Description: Coulometric Karl-Fischer titration (KFT; for determining the water content) was performed with an external drying oven (Metrohm 707 KF; operated at 140° C. with N2 purge). The samples were precisely weighed on an analytical balance (10^−5 g).
The testing was performed as described in the ICH guidelines.

[3] = Thermostability under stress conditions (storage at 100 °C for one month), HPLC
Description: Sample S was prepared according to the present invention, as described in Example 3 above. Sample M1 was prepared according to Example 1 of WO 2012/163508 A1, as described in Example 7 above. Finally, Sample M2 was prepared according to Example 2 of WO 2012/163508 A1, as described in Example 7 above.
The samples were exposed to a temperature of 100° C. for the time period (in weeks) indicated. The testing was performed as described in the ICH Guideline Q1A (R2) (cf. above). The amount of the degradation product (i.e. doxorubicinone) produced as well as those of various impurities (i.e., doxorubicin and four different impurities of yet unknown identity; all given in % (w/w); “n.d.”=not determined) was determined by HPCL analysis (“LT”=less than).

[4] = Particle size distribution by laser diffraction analysis (Mastersizer 2000); settings: wet laser diffraction in acetone; listed as Sample 1, hydrochloride
Description: Laser diffraction analysis was performed in form of wet laser diffraction in acetone: 1750 rpm, 3×20 s cycle time, 60 s background time, without sonication, and 5 min stirring time using a Mastersizer 2000 Particle Size Analyzer (Malvern Instruments Ltd., Malvern, UK) according to the manufacturer's instructions.

## COc1cccc2c1C(=O)c1c(O)c3c(c(O)c1C2=O)C[C@@](O)(C(=O)CO)C[C@@H]3O[C@H]1C[C@H](N)[C@H](O)[C@H](C)O1 [Example 2, epirubicin hydrochloride]
[1]
  Thermostability compared with the Example 1 monohydrate (TABLE 5-1), in words: almost identical results
[2]
  Hygroscopic capacity compared with the Example 1 monohydrate (TABLE 6-1), in words: almost identical results

## COc1cccc2c1C(=O)c1c(O)c3c(c(O)c1C2=O)C[C@@](O)(C(=O)CO)C[C@@H]3O[C@H]1C[C@H](N)[C@H](O)[C@H](C)O1 [Example M1, epirubicin hydrochloride]
[3]; 0 weeks
  Doxorubicin (NMT 1%): 0.29 % (w/w)
  Doxorubicinone (Aglycone) (NMT 1%): < 0.05 % (w/w)
  Total Impurities (NMT 2%): 0.30 % (w/w)
[3]; 1 week, hydrochloride
  Doxorubicin (NMT 1%): 0.27 % (w/w)
  Doxorubicinone (Aglycone) (NMT 1%): 0.52 % (w/w)
  Total Impurities (NMT 2%): 1.20 % (w/w)
  Unknown impurity RRT 1.2 (NMT 0.15%): 0.06 % (w/w)
  Unknown impurity RRT 1.6 (NMT 0.15%): 0.08 % (w/w)
  Unknown impurity RRT 1.7 (NMT 0.15%): 0.12 % (w/w)
[3]; 2 weeks
  Doxorubicin (NMT 1%): 0.32 % (w/w)
[3]; 2 weeks, hydrochloride
  Doxorubicinone (Aglycone) (NMT 1%): 0.57 % (w/w)
  Total Impurities (NMT 2%): 1.60 % (w/w)
  Unknown impurity RRT 1.1 (NMT 0.15%): 0.11 % (w/w)
  Unknown impurity RRT 1.2 (NMT 0.15%): 0.13 % (w/w)
  Unknown impurity RRT 1.6 (NMT 0.15%): 0.18 % (w/w)
  Unknown impurity RRT 1.7 (NMT 0.15%): 0.16 % (w/w)
[3]; 3 weeks, hydrochloride
  Doxorubicin (NMT 1%): 0.33 % (w/w)
  Doxorubicinone (Aglycone) (NMT 1%): 0.61 % (w/w)
  Total Impurities (NMT 2%): 1.80 % (w/w)
  Unknown impurity RRT 1.1 (NMT 0.15%): 0.14 % (w/w)
  Unknown impurity RRT 1.2 (NMT 0.15%): 0.14 % (w/w)
  Unknown impurity RRT 1.6 (NMT 0.15%): 0.24 % (w/w)
  Unknown impurity RRT 1.7 (NMT 0.15%): 0.20 % (w/w)
[3]; 4 weeks
  Doxorubicin (NMT 1%): 0.33 % (w/w)
[3]; 4 weeks, hydrochloride
  Doxorubicinone (Aglycone) (NMT 1%): 0.61 % (w/w)
  Total Impurities (NMT 2%): 2.3* % (w/w)
  Total amount of unknown impurities: 1.36 % (w/w)
  Unknown impurity RRT 1.1 (NMT 0.15%): 0.18 % (w/w)
  Unknown impurity RRT 1.2 (NMT 0.15%): 0.18 % (w/w)
  Unknown impurity RRT 1.6 (NMT 0.15%): 0.46 % (w/w)
  Unknown impurity RRT 1.7 (NMT 0.15%): 0.31 % (w/w)
[4]
  D(v/0.5), mean diameter based on the volume of the particles: 4.62 μm
